What was measured:
Assay in all cases: Pre-emergence test
Assay type in all cases: in vivo
[1] = system: Abutilon theophrasti (ABUTH); conditions: 3 weeks after treatment
Experimental: (§1) To evaluate their herbicidal activity, compounds according to the invention are tested using a representative range of plants: […] The pre-emergence tests involve spraying a liquid formulation of the compound onto the soil in which the seeds of the plant species mentioned above has recently been sown. The soil used in the tests is a prepared horticultural loam. […] In these tests untreated sown soil are used as controls.

[2] = system: Alopecurus myosuroides (ALOMY); conditions: 3 weeks after treatment
Experimental: as §1

[3] = system: Matricaria inodora (MATIN); conditions: 3 weeks after treatment
Experimental: as §1

[4] = system: Lolium multiflorum (LOLMU); conditions: 3 weeks after treatment
Experimental: as §1

[5] = system: Ipomoea hederacea (IPOHE); conditions: 3 weeks after treatment
Experimental: as §1

[6] = system: Stellaria media (STEME); conditions: 3 weeks after treatment
Experimental: as §1

[7] = system: Galium aparine (GALAP); conditions: 3 weeks after treatment
Experimental: as §1

[8] = system: Lamium purpureum (LAMPU); conditions: 3 weeks after treatment
Experimental: as §1

[9] = system: Zea mays (ZEAMX); conditions: crop (corn), 3 weeks after treatment
Experimental: as §1

[10] = system: Cassia obtusifolia (CASOB); conditions: 3 weeks after treatment
Experimental: as §1

[11] = system: Digitaria sanguinalis (DIGSA); conditions: 3 weeks after treatment
Experimental: as §1

[12] = system: Ambrosia artemisifolia (AMBEL); conditions: 3 weeks after treatment
Experimental: as §1

[13] = system: Echinochloa crus-galli (ECHCG); conditions: 3 weeks after treatment
Experimental: as §1

In the case of `Cn1nc(C(F)(F)F)cc1Oc1cccc(-n2ccc(C(F)(F)F)n2)n1` [Comparison], the “Assessment rating ABUTH (pre-emergence application)” value (from here on “Assessment rating ABUTH”) ([1]; 0.013 kg/ha) is reported as 0 (0 - No effect), the “Assessment rating ABUTH” value ([1]; 0.025 kg/ha) is reported as 0 (0 - No effect) and the “Assessment rating ABUTH” value ([1]; 0.100 kg/ha) is reported as 5 (5 - Definite injury). For the same compound, the “Assessment rating ABUTH” value ([1]; 0.400 kg/ha) was 9 (9 - Complete kill), the “Assessment rating ALOMY (pre-emergence application)” value (shortened to “Assessment rating ALOMY”) ([2]; 0.013 kg/ha) was 0 (0 - No effect) and the “Assessment rating ALOMY” value ([2]; 0.025 kg/ha) was 1 (1 - Trace effect). The “Assessment rating ALOMY” value ([2]; 0.100 kg/ha) was 4 (4 - Injury), the “Assessment rating ALOMY” value ([2]; 0.400 kg/ha) was 8 (8 - Approaching complete kill) and the “Assessment rating MATIN (pre-emergence application)” value (“Assessment rating MATIN” below) ([3]; 0.013 kg/ha) was 2 (2 - Slight effect). The “Assessment rating MATIN” value ([3]; 0.025 kg/ha) was 7 (7 - Good herbicidal effect), the “Assessment rating MATIN” value ([3]; 0.100 kg/ha) was 9 (9 - Complete kill) and the “Assessment rating MATIN” value ([3]; 0.400 kg/ha) was 9 (9 - Complete kill). For the same compound, the “Assessment rating LOLMU (pre-emergence application)” value (from here on “Assessment rating LOLMU”) ([4]; 0.013 kg/ha) was 3 (3 - Moderate effect), the “Assessment rating LOLMU” value ([4]; 0.025 kg/ha) was 5 (5 - Definite injury) and the “Assessment rating LOLMU” value ([4]; 0.100 kg/ha) was 8 (8 - Approaching complete kill). The “Assessment rating LOLMU” value ([4]; 0.400 kg/ha) was 8 (8 - Approaching complete kill), the “Assessment rating IPOHE (pre-emergence application)” value (shortened to “Assessment rating IPOHE”) ([5]; 0.013 kg/ha) was 0 (0 - No effect) and the “Assessment rating IPOHE” value ([5]; 0.025 kg/ha) was 1 (1 - Trace effect). For the same compound, the “Assessment rating IPOHE” value ([5]; 0.100 kg/ha) was 3 (3 - Moderate effect), the “Assessment rating IPOHE” value ([5]; 0.400 kg/ha) was 7 (7 - Good herbicidal effect) and the “Assessment rating STEME (pre-emergence application)” value (“Assessment rating STEME” below) ([6]; 0.013 kg/ha) was 0 (0 - No effect). For the same compound, the “Assessment rating STEME” value ([6]; 0.025 kg/ha) was 8 (8 - Approaching complete kill), the “Assessment rating STEME” value ([6]; 0.100 kg/ha) was 8 (8 - Approaching complete kill) and the “Assessment rating STEME” value ([6]; 0.400 kg/ha) was 9 (9 - Complete kill). For the same compound, the “Assessment rating GALAP (pre-emergence application)” value (from here on “Assessment rating GALAP”) ([7]; 0.013 kg/ha) was 0 (0 - No effect), the “Assessment rating GALAP” value ([7]; 0.025 kg/ha) was 1 (1 - Trace effect) and the “Assessment rating GALAP” value ([7]; 0.100 kg/ha) was 2 (2 - Slight effect). The “Assessment rating GALAP” value ([7]; 0.400 kg/ha) was 8 (8 - Approaching complete kill), the “Assessment rating LAMPU (pre-emergence application)” value (shortened to “Assessment rating LAMPU”) ([8]; 0.013 kg/ha) was 1 (1 - Trace effect) and the “Assessment rating LAMPU” value ([8]; 0.025 kg/ha) was 6 (6 - Herbicidal effect). The “Assessment rating LAMPU” value ([8]; 0.100 kg/ha) was 8 (8 - Approaching complete kill), the “Assessment rating LAMPU” value ([8]; 0.400 kg/ha) was 8 (8 - Approaching complete kill) and the “Assessment rating ZEAMX (pre-emergence application)” value (“Assessment rating ZEAMX” below) ([9]; 0.013 kg/ha) was 0 (0 - No effect). The “Assessment rating ZEAMX” value ([9]; 0.025 kg/ha) was 0 (0 - No effect), the “Assessment rating ZEAMX” value ([9]; 0.100 kg/ha) was 1 (1 - Trace effect) and the “Assessment rating ZEAMX” value ([9]; 0.400 kg/ha) was 2 (2 - Slight effect). For the same compound, the “Assessment rating CASOB (pre-emergence application)” value (from here on “Assessment rating CASOB”) ([10]; 0.013 kg/ha) was 0 (0 - No effect), the “Assessment rating CASOB” value ([10]; 0.025 kg/ha) was 0 (0 - No effect) and the “Assessment rating CASOB” value ([10]; 0.100 kg/ha) was 2 (2 - Slight effect). The “Assessment rating CASOB” value ([10]; 0.400 kg/ha) was 5 (5 - Definite injury), the “Assessment rating DIGSA (pre-emergence application)” value (shortened to “Assessment rating DIGSA”) ([11]; 0.013 kg/ha) was 9 (9 - Complete kill) and the “Assessment rating DIGSA” value ([11]; 0.025 kg/ha) was 9 (9 - Complete kill). For the same compound, the “Assessment rating DIGSA” value ([11]; 0.100 kg/ha) was 9 (9 - Complete kill), the “Assessment rating DIGSA” value ([11]; 0.400 kg/ha) was 9 (9 - Complete kill) and the “Assessment rating AMBEL (pre-emergence application)” value (“Assessment rating AMBEL” below) ([12]; 0.013 kg/ha) was 0 (0 - No effect). For the same compound, the “Assessment rating AMBEL” value ([12]; 0.025 kg/ha) was 4 (4 - Injury), the “Assessment rating AMBEL” value ([12]; 0.100 kg/ha) was 6 (6 - Herbicidal effect) and the “Assessment rating AMBEL” value ([12]; 0.400 kg/ha) was 8 (8 - Approaching complete kill). The “Assessment rating ECHCG (pre-emergence application)” value (from here on “Assessment rating ECHCG”) ([13]; 0.013 kg/ha) was 0 (0 - No effect), the “Assessment rating ECHCG” value ([13]; 0.025 kg/ha) was 2 (2 - Slight effect) and the “Assessment rating ECHCG” value ([13]; 0.100 kg/ha) was 4 (4 - Injury).

Source: patent publication US6448204B1, “Herbicidal 2-aryloxy-4-methyl-6-pyrazol-1-yl-pyridines” (BASF Aktiengesellschaft, priority 1999, dated 2002)
